pIC50: −log10 of the molar value.
Tests used:
Format in all cases: biochemical
Lck-1 = biological target: T1, Lck-1 (Homo sapiens, UniProt P06239); assay: Kinase inhibition, 33P transfer to plate-bound substrate: Lck-1
T1 construct: Kinases are expressed as either kinase domains or full-length constructs; made in house
Description: (§1) The inhibitor compounds described herein are screened in the following manner. Kinases suitable for use in the following protocol to determine kinase activity of the compounds described herein include, but are not limited to: Lck, Lyn, Src, Fyn, Syk, Zap-70, Itk, Tec, Btk, EGFR, ErbB2, Kdr, Flt-1, Flt-3, Tek, c-Met, InsR, and AKT.
(§2) Kinases are expressed as either kinase domains or full-length constructs fused to glutathione S-transferase (GST) or polyHistidine tagged fusion proteins in either E. coli or Baculovirus-High Five expression systems. They are purified to near homogeneity by affinity chromatography essentially as previously described (Lehr et al., 1996; Gish et al., 1995). In some instances, kinases are co-expressed or mixed with purified or partially purified regulatory polypeptides prior to measurement of activity.
(§3) Kinase activity and inhibition are measured essentially by established protocols (Braunwalder et al., 1996). Briefly, The transfer of ^33PO4 from ATP to the synthetic substrates poly(Glu, Tyr) 4:1 or poly(Arg, Ser) 3:1 attached to the bioactive surface of microtiter plates serves as the basis to evaluate enzyme activity. After an incubation period, the amount of phosphate transferred is measured by first washing the plate with 0.5% phosphoric acid, adding liquid scintillant, and then counting in a liquid scintillation detector. The IC50 is determined by the concentration of compound that causes a 50% reduction in the amount of ^33P incorporated onto the substrate bound to the plate.

KDR-1 = biological target: T2, KDR-1 (Homo sapiens, UniProt P35968); assay: Kinase inhibition, 33P transfer to plate-bound substrate: KDR-1
T2 construct: Kinases are expressed as either kinase domains or full-length constructs; made in house
Description: as §1, §2, §3

EGFR-1 = biological target: T3, EGFR-1 (Homo sapiens, UniProt P00533); assay: Kinase inhibition, 33P transfer to plate-bound substrate: EGFR-1
T3 construct: Kinases are expressed as either kinase domains or full-length constructs; made in house
T3 sequence (P00533 25-1210): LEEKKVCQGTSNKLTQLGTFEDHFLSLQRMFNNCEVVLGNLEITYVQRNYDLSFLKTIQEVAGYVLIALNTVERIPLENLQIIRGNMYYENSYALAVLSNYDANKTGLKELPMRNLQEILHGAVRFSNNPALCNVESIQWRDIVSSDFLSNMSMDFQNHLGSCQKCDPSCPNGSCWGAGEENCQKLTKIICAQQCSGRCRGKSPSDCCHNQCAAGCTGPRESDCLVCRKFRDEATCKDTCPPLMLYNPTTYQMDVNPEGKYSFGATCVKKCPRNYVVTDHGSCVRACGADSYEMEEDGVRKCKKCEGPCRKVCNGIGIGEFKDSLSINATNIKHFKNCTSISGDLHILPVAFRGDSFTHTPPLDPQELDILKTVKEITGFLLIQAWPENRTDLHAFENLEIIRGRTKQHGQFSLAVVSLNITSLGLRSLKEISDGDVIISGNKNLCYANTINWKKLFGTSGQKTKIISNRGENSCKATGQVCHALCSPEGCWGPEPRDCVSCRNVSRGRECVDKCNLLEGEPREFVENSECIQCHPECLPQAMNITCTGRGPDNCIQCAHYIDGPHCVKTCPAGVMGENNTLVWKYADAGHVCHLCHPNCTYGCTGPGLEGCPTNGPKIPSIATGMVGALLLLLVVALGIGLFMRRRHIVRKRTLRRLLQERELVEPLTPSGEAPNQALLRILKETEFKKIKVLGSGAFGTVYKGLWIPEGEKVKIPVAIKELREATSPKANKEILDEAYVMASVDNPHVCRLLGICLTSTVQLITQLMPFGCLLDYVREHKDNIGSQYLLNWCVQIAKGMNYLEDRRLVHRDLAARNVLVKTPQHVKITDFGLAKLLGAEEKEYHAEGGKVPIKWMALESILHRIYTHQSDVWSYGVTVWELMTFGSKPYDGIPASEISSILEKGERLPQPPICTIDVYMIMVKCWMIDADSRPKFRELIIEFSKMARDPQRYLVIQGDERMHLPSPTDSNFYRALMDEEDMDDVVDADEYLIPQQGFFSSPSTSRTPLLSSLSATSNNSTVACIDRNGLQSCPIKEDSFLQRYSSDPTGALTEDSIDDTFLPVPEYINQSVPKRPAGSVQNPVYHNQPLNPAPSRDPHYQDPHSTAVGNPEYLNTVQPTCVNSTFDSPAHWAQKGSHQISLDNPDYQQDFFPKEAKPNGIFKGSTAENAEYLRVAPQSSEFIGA
Description: as §1, §2, §3

Lck-2 = biological target: T4, Lck-2 (Homo sapiens, UniProt P06239); assay: Kinase inhibition, 33P transfer to plate-bound substrate: Lck-2
T4 construct: Kinases are expressed as either kinase domains or full-length constructs; made in house
T4 sequence (P06239 whole entry, the tested form may be a part): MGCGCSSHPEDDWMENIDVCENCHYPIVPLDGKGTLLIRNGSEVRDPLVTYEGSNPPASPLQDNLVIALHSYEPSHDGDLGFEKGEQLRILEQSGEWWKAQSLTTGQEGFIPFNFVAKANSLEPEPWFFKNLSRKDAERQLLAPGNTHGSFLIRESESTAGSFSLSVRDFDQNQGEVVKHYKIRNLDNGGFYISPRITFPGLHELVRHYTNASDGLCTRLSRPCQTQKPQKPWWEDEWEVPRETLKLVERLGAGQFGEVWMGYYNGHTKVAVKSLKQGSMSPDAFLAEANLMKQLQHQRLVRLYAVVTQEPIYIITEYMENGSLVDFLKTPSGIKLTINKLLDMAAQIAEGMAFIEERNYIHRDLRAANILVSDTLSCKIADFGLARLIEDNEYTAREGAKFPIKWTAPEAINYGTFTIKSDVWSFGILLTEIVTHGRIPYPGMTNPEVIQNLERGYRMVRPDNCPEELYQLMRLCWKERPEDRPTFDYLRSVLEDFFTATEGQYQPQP
Description: as §1, §2, §3

Akt3-1 = biological target: T5, Akt3-1 (Homo sapiens, UniProt Q9Y243); assay: Kinase inhibition, 33P transfer to plate-bound substrate: Akt3-1
T5 construct: Kinases are expressed as either kinase domains or full-length constructs; made in house
T5 sequence (Q9Y243 whole entry, the tested form may be a part): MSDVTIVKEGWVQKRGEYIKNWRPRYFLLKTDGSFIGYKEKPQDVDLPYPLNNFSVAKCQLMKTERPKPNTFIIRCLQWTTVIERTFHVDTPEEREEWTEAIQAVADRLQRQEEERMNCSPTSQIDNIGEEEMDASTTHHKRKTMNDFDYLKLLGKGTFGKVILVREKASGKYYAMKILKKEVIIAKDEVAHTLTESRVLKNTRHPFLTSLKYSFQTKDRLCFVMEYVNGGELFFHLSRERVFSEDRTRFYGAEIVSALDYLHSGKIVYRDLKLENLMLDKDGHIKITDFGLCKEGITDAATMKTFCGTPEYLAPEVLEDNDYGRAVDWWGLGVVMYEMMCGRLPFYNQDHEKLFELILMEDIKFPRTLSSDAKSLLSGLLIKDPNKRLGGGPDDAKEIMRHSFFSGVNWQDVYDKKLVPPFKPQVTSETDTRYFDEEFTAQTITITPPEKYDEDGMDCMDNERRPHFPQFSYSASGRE
Description: as §1, §2, §3

Met-1 = biological target: T6, Met-1 (Homo sapiens, UniProt P08581); assay: Kinase inhibition, 33P transfer to plate-bound substrate: Met-1
T6 construct: Kinases are expressed as either kinase domains or full-length constructs; made in house
Description: as §1, §2, §3

Tek-1 = biological target: T7, Tek-1 (Homo sapiens, UniProt Q02763); assay: Kinase inhibition, 33P transfer to plate-bound substrate: Tek-1
T7 construct: Kinases are expressed as either kinase domains or full-length constructs; made in house
T7 sequence (Q02763 23-1124): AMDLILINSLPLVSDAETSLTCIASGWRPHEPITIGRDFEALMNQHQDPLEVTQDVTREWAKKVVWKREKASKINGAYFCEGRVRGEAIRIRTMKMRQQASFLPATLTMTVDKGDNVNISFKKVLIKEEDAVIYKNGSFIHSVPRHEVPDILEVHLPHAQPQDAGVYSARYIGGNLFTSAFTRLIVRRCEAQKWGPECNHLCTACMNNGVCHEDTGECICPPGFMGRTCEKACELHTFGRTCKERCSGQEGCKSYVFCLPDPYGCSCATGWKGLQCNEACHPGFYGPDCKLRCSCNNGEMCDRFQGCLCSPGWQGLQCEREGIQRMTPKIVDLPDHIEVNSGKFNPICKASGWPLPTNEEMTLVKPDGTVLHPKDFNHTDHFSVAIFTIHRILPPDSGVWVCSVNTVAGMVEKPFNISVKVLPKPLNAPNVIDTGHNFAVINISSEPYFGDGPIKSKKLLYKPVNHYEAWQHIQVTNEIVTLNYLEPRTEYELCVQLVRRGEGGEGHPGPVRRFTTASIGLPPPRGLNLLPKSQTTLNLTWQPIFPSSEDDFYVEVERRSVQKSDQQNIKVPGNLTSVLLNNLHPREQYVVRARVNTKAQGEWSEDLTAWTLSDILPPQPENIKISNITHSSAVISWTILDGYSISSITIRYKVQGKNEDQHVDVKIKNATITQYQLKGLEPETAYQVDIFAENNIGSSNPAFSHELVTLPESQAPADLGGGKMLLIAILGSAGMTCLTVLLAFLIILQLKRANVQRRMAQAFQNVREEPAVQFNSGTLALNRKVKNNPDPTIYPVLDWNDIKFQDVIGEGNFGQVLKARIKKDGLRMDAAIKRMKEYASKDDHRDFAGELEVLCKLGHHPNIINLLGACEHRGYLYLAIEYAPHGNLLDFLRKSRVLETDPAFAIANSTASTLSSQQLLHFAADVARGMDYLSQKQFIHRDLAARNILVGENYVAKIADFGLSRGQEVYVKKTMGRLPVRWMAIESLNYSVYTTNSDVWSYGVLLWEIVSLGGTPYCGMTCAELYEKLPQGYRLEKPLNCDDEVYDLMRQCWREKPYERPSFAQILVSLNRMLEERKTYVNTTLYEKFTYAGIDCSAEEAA
Description: as §1, §2, §3

Itk-1 = biological target: T8, Itk-1 (Homo sapiens, UniProt Q08881); assay: Kinase inhibition, 33P transfer to plate-bound substrate: Itk-1
T8 construct: Kinases are expressed as either kinase domains or full-length constructs; made in house
T8 sequence (Q08881 1-620): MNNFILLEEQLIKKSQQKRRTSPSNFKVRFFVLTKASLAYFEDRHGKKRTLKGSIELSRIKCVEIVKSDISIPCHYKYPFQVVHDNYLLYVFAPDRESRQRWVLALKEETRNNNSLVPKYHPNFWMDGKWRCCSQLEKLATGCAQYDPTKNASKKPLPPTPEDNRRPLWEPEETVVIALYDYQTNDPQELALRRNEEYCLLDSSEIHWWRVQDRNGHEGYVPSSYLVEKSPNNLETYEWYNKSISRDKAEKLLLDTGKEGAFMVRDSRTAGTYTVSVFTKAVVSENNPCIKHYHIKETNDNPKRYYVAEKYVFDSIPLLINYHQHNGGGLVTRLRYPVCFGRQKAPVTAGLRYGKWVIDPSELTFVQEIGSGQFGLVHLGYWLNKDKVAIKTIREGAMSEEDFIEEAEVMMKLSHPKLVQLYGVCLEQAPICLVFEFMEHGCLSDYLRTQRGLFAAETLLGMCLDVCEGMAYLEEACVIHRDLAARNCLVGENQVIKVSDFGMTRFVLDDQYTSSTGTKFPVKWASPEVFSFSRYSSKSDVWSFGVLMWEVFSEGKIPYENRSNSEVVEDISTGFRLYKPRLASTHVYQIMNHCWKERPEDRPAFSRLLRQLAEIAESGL
Description: as §1, §2, §3

Zap-1 = biological target: T9, Zap-1 (Homo sapiens, UniProt P43403); assay: Kinase inhibition, 33P transfer to plate-bound substrate: Zap-1
T9 construct: Kinases are expressed as either kinase domains or full-length constructs; made in house
T9 sequence (P43403 1-619): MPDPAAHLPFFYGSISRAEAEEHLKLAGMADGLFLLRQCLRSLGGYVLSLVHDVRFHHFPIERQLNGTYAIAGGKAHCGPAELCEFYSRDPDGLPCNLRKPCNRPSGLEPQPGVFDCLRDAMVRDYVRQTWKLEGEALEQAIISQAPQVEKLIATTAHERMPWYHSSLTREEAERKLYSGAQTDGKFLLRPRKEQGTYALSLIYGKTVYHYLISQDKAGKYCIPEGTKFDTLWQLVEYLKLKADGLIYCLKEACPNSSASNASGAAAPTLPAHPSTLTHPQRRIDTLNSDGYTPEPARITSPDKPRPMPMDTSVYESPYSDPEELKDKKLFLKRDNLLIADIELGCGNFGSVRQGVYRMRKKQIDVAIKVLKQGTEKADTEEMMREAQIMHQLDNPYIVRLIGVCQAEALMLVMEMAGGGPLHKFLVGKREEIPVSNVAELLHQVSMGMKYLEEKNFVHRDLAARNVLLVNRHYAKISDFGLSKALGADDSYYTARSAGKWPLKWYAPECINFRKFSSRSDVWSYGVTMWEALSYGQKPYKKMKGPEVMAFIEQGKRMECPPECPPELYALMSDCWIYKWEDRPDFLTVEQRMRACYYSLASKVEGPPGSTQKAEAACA
Description: as §1, §2, §3

PDGFRB = biological target: T10, PDGFRB (Homo sapiens, UniProt P09619); assay: Kinase inhibition, 33P transfer to plate-bound substrate: PDGFRB
T10 construct: Kinases are expressed as either kinase domains or full-length constructs; made in house
Description: as §1, §2, §3

IGFR-1 = biological target: T11, IGFR-1 (Homo sapiens, UniProt P08069); assay: Kinase inhibition, 33P transfer to plate-bound substrate: IGFR-1
T11 construct: Kinases are expressed as either kinase domains or full-length constructs; made in house
Description: as §1, §2, §3

ErbB2-1 = biological target: T12, ErbB2-1 (Homo sapiens, UniProt P04626); assay: Kinase inhibition, 33P transfer to plate-bound substrate: ErbB2-1
T12 construct: Kinases are expressed as either kinase domains or full-length constructs; made in house
T12 sequence (P04626 23-1255): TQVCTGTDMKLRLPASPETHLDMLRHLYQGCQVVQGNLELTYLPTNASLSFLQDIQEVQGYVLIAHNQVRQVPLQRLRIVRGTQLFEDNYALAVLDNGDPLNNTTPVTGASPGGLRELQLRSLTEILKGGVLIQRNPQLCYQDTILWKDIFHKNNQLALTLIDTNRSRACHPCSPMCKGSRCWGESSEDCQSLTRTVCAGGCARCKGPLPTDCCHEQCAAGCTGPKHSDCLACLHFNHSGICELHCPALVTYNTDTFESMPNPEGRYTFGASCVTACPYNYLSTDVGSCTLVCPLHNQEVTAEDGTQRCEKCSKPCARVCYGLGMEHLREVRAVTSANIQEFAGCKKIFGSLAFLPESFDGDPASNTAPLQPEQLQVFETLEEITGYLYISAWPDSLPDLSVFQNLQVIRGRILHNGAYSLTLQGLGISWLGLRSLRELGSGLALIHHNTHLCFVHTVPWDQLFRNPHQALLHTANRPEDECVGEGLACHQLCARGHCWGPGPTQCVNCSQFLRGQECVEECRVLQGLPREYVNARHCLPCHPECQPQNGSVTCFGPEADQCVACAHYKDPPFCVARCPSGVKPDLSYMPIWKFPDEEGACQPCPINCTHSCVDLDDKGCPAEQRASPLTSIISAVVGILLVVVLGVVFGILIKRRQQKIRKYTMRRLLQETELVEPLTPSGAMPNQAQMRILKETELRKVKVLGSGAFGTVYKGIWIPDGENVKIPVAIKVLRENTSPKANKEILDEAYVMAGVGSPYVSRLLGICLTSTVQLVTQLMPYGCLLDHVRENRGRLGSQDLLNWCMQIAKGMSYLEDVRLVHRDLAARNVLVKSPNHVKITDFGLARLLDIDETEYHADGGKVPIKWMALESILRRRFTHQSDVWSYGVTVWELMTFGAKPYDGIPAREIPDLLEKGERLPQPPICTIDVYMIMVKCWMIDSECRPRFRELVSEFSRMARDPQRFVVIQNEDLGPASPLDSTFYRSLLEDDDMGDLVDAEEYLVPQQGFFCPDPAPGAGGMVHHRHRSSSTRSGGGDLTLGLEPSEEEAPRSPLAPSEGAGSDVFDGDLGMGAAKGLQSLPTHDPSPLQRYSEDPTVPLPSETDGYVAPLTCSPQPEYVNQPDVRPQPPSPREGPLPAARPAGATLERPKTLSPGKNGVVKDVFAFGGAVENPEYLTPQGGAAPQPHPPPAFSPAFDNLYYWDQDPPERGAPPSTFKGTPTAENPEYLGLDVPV
Description: as §1, §2, §3

ErbB4-1 = biological target: T13, ErbB4-1 (Homo sapiens, UniProt Q15303); assay: Kinase inhibition, 33P transfer to plate-bound substrate: ErbB4-1
T13 construct: Kinases are expressed as either kinase domains or full-length constructs; made in house
Description: as §1, §2, §3

Src-1 = biological target: T14, Src-1 (Homo sapiens, UniProt P12931); assay: Kinase inhibition, 33P transfer to plate-bound substrate: Src-1
T14 construct: Kinases are expressed as either kinase domains or full-length constructs; made in house
Description: as §1, §2, §3

Hck-1 = biological target: T15, Hck-1 (Homo sapiens, UniProt P08631); assay: Kinase inhibition, 33P transfer to plate-bound substrate: Hck-1
T15 construct: Kinases are expressed as either kinase domains or full-length constructs; made in house
Description: as §1, §2
as §3, with “The IC50 is determined by the concentration of compound that causes a 50% reduction in the amount of ^33P incorporated onto the substrate bound to the plate.” left out

Fyn-1 = biological target: T16, Fyn-1 (Homo sapiens, UniProt P06241); assay: Kinase inhibition, 33P transfer to plate-bound substrate: Fyn-1
T16 construct: Kinases are expressed as either kinase domains or full-length constructs; made in house
Description: as §1, §2, §3

Lyn-1 = biological target: T17, Lyn-1 (Homo sapiens, UniProt P07948); assay: Kinase inhibition, 33P transfer to plate-bound substrate: Lyn-1
T17 construct: Kinases are expressed as either kinase domains or full-length constructs; made in house
T17 sequence (P07948 whole entry, the tested form may be a part): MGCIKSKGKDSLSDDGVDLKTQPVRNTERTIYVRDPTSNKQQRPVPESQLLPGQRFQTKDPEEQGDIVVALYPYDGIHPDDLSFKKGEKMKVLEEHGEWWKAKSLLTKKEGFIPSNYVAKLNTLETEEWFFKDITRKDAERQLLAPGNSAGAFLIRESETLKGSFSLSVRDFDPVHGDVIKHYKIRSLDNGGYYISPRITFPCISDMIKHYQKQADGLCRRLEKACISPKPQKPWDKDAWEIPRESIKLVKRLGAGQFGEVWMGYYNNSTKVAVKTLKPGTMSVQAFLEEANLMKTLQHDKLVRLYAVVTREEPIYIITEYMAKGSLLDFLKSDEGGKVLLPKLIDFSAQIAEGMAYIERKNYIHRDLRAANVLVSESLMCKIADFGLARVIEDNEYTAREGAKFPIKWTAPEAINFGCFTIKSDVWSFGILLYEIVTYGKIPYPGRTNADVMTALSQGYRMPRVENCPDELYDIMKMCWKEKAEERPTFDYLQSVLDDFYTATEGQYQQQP
Description: as §1, §2, §3

FGFR1-1 = biological target: T18, FGFR1-1 (Homo sapiens, UniProt P11362); assay: Kinase inhibition, 33P transfer to plate-bound substrate: FGFR1-1
T18 construct: Kinases are expressed as either kinase domains or full-length constructs; made in house
Description: as §1, §2, §3

Flt1-1 = biological target: T19, Flt1-1 (Homo sapiens, UniProt P17948); assay: Kinase inhibition, 33P transfer to plate-bound substrate: Flt1-1
T19 construct: Kinases are expressed as either kinase domains or full-length constructs; made in house
Description: as §1, §2, §3

Ret-1 = biological target: T20, Ret-1 (Homo sapiens, UniProt P07949); assay: Kinase inhibition, 33P transfer to plate-bound substrate: Ret-1
T20 construct: Kinases are expressed as either kinase domains or full-length constructs; made in house
Description: as §1, §2, §3

InsR-1 = biological target: T21, InsR-1 (Homo sapiens, UniProt P06213); assay: Kinase inhibition, 33P transfer to plate-bound substrate: InsR-1
T21 construct: Kinases are expressed as either kinase domains or full-length constructs; made in house
Description: as §1, §2, §3

T1 sequence (P06239 whole entry, the tested form may be a part): as the sequence (P06239 whole entry, the tested form may be a part) above

Compound | pIC50 (Lck-1) | pIC50 (KDR-1) | pIC50 (EGFR-1) | pIC50 (Lck-2) | pIC50 (Akt3-1) | pIC50 (Met-1) | pIC50 (Tek-1) | pIC50 (Itk-1) | pIC50 (Zap-1) | pIC50 (PDGFRB) | pIC50 (IGFR-1) | pIC50 (ErbB2-1) | other results
COc1cc(Nc2ccnc(-n3ccc4ccccc43)n2)cc(OC)c1OC [Compound 32] | ≤ 5.00 | 5.00 to 5.30 | ≤ 5.00 | ≤ 5.00 | ≤ 5.00 | ≤ 5.00 | ≤ 5.00 |  | ≤ 5.00 |  |  |  | 
COc1cc(Nc2nccc(-n3ccc(-c4ccc(Cl)cc4)n3)n2)cc(OC)c1OC [Compound 33] | ≤ 5.00 | ≤ 5.00 | ≤ 5.00 | ≤ 5.00 | ≤ 5.00 | ≤ 5.00 |  | ≤ 5.00 | 5.00 to 5.30 | ≤ 5.00 | ≤ 5.00 | ≤ 5.00 | 
COc1ccc(-c2ccn(-c3ccnc(Nc4cc(OC)c(OC)c(OC)c4)n3)n2)cc1 [Compound 34] | ≤ 5.00 | ≤ 5.00 | 5.00 to 5.30 | ≤ 5.00 | ≤ 5.00 | ≤ 5.00 |  | ≤ 5.00 | 5.00 to 5.30 | ≤ 5.00 | ≤ 5.00 | ≤ 5.00 | 
COc1cc(Nc2nccc(Nc3cc(C(C)(C)C)n[nH]3)n2)cc(OC)c1OC [Compound 35] | > 5.82 | 5.30 to 5.82 | 5.00 to 5.30 | > 5.82 | ≤ 5.00 | > 5.82 |  | 5.30 to 5.82 | ≤ 5.00 | 5.30 to 5.82 | > 5.82 | ≤ 5.00 | pIC50 (Ret-1): 5.30 to 5.82; pIC50 (ErbB4-1): 5.00 to 5.30; pIC50 (Src-1): > 5.82; pIC50 (Fyn-1): 5.30 to 5.82; pIC50 (Lyn-1): > 5.82; pIC50 (FGFR1-1): 5.00 to 5.30; pIC50 (Flt1-1): 5.00 to 5.30; pIC50 (InsR-1): > 5.82

Now from value to compound, other results behind:

pIC50 (Lck-1) | pIC50 (KDR-1) | pIC50 (EGFR-1) | pIC50 (Lck-2) | pIC50 (Akt3-1) | pIC50 (Met-1) | pIC50 (Tek-1) | pIC50 (Itk-1) | pIC50 (Zap-1) | pIC50 (PDGFRB) | pIC50 (IGFR-1) | pIC50 (ErbB2-1) | Compound | other results
5.00 to 5.30 | 5.00 to 5.30 | ≤ 5.00 | 5.30 to 5.82 | 5.00 to 5.30 | 5.00 to 5.30 | ≤ 5.00 | 5.00 to 5.30 | ≤ 5.00 |  |  |  | COc1cc(Nc2nccc(-n3c(N)nc4ccccc43)n2)cc(OC)c1OC [Compound 11] | 
≤ 5.00 | ≤ 5.00 | ≤ 5.00 | ≤ 5.00 | ≤ 5.00 | ≤ 5.00 | ≤ 5.00 | ≤ 5.00 | ≤ 5.00 | ≤ 5.00 | ≤ 5.00 | ≤ 5.00 | COc1cc(Nc2nccc(-n3c(=O)oc4ccccc43)n2)cc(OC)c1OC [Compound 25] | 
> 5.82 | > 5.82 | ≤ 5.00 | > 5.82 | ≤ 5.00 | 5.30 to 5.82 | 5.00 to 5.30 | 5.30 to 5.82 | ≤ 5.00 | > 5.82 |  |  | COc1cc(Nc2nccc(-n3ccc4ccccc43)n2)cc(OC)c1OC [Compound 31] | pIC50 (ErbB4-1): 5.30 to 5.82; pIC50 (Src-1): > 5.82; pIC50 (Hck-1): ≤ 5.00; pIC50 (Fyn-1): > 5.82; pIC50 (Lyn-1): > 5.82; pIC50 (FGFR1-1): > 5.82; pIC50 (Flt1-1): > 5.82

From patent US7282504B2, “Kinase inhibitors” (Amgen Inc., priority 2000, dated 2007)
